The values that follow are results of earlier work, collected in patent US9801890B2, “Medical methods utilising high purity diaminophenothiazinium compounds” (WisTa Laboratories Ltd., priority 2004, dated 2017).

One data set has as its system HIV. To be noted: laboratory tests.
The next data set relates to West Nile Virus. As to conditions: laboratory tests.
Another data set relates to viruses. As to conditions: in vitro.

Turning to `CN(C)c1ccc2nc3ccc(N(C)C)cc3[s+]c2c1.[Cl-]` [MTC, 3,7-bis(dimethylamino) phenothiazin-5-ium chloride], the effectiveness against virus entry in the data set with HIV and in the data set on West Nile Virus was “effective” in each case. The viricidal activity entry in the data set on viruses was “potent viricidal activity”.
